{"source": "patent EP0998939A1", "about": "“Chalcone plant extracts for use in therapy” (THE SCHOOL OF PHARMACY, UNIVERSITY OF LONDON, priority 1998, dated 2000)", "system": "Female CD1 mice", "assay": "Topical chemical erythema: inhibition of TPA induced erythema on the mouse ear", "format": "in vivo", "conditions": "applied to the right ear in 5µl, 20 minutes prior to TPA (0.1µg/5µl)", "experimental": "Ref. Williamson E.M. and Evans F. (1981), Inhibition of erythema induced by proinflammatory esters of 12-deoxyphorbol. Acta Pharmacol. Toxicol.,48, 47-52\nFemale CD1 mice, weighing approximately 20g were used. • 2. Test plant extracts as produced in Example 1 were applied externally to the right ear of each mouse, at predetermined concentrations in 5µl quantities, 20 minutes prior to the application of the irritant compound 12-O-tetradecanoylphorbal-13-acetate (TPA)(0.1µg/5µl). • 3. A […] response was indicated by redness and inflammation of the ear. • 4. Observations were recorded at 2,3,4,6,7, and 24 hours after the application of TPA. Maximum inflammation caused by TPA alone occurs at 6 hours after the application of TPA.\nErythema of the mouse ear is the simplest experiment to perform as mice have translucent ears in which reddening is easily visible. Quantification is subjective, however the erythema can be described as pronounced, slight or absent. • Isoliquiritigenin ED50 (dose required to inhibit erythema in at least 50% of the animals) 20-50,µg • Licochalcone B ED50 5-10µg • Echinatin ED50 5-10µg"}
{"smiles": "O=C(/C=C/c1ccc(O)cc1)c1ccc(O)cc1O", "note": "[Isoliquiritigenin, isoliquiritigenin]", "values": [{"measurement": "ED50 (dose required to inhibit erythema in at least 50% of the animals)", "value": "20 to 50", "unit": "µg"}]}
